The target in one test is T1, delF508-CFTR-HRP (Homo sapiens, UniProt P13569, DEL508-508).
T1 construct: expressed in transfected cells
Briefly: Measurement of delF508-CFTR-HRP surface expression in CFBE41o- cells (HRP luminescence).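 For DelF508-CFTR-HRP Amax %: percent efficacy relative to a reference CFTR corrector compound.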 The conditions noted are these: for Emax: CFBE41o-, read-out: DelF508-CFTR-HRP Amax %; for EC50: mean of at least two replicates. The class given is cell-based. An outline of the steps: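 Stably transfected CFBE41o- cells carrying HRP in the fourth extracellular loop of delF508-CFTR, induced with 500 ng/mL doxycycline for 48 h, then compound-treated 24 h at 37° C (10-point, 3-fold, top 10 μM). Surface HRP detected by luminescent substrate; EC50 from logistic fit, triplicates, normalized to lowest-concentration median.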

In another test the target is T2, delF508-CFTR (Homo sapiens, UniProt P13569, DEL508-508).
T2 construct: functional activity of the CFTR channel (Chloride ion transport) in patient derived primary human bronchial epithelial cells; host or cells: patient-derived primary human bronchial epithelial cells (HBECs), delF508-CFTR
The test can be described thus: delF508-CFTR functional activity in primary human bronchial epithelial cells (HBECs), Multi-Transepithelial Clamp Circuit (MTECC-24) assay, equivalent short circuit current. It counts as cell-based. The conditions noted are these: primary CF HBECs; for MTECC24 CFHBEC-Amax %: relative to reference combination 2 μM 3-(6-(1-(2,2-difluorobenzo[d][1,3]dioxol-5-yl)cyclopropane-1-carboxamido)-3-methylpyridin-2-yl)benzoic acid (24 h) + 0.5 μM N-(2,4-di-tert-butyl-5-hydroxyphenyl)-4-oxo-1,4-dihydroquinoline-3-carboxamide; for EC50: test compound added 24 h before assay, potentiator (S)-3-amino-6-methoxy-N-(3,3,3-trifluoro-2-hydroxy-2-methylpropyl)-5-(trifluoromethyl)picolinamide present at assay, mean of at least two replicates, read-out: MTECC24 CFHBEC-EC50. In outline: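 Patient-derived delF508 HBECs, grown at air-liquid interface about two weeks, were corrected with compound basolaterally for 24 h. Compound was then re-added apically and basolaterally in HEPES pH7.4 assay medium, with sequential modulators including forskolin and the picolinamide potentiator. Ieq was recorded, normalised to 0.1% DMSO wells, and EC50 fitted from 10-point curves.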

T2 sequence (P13569 with tags, fused parts or gaps DEL508-508): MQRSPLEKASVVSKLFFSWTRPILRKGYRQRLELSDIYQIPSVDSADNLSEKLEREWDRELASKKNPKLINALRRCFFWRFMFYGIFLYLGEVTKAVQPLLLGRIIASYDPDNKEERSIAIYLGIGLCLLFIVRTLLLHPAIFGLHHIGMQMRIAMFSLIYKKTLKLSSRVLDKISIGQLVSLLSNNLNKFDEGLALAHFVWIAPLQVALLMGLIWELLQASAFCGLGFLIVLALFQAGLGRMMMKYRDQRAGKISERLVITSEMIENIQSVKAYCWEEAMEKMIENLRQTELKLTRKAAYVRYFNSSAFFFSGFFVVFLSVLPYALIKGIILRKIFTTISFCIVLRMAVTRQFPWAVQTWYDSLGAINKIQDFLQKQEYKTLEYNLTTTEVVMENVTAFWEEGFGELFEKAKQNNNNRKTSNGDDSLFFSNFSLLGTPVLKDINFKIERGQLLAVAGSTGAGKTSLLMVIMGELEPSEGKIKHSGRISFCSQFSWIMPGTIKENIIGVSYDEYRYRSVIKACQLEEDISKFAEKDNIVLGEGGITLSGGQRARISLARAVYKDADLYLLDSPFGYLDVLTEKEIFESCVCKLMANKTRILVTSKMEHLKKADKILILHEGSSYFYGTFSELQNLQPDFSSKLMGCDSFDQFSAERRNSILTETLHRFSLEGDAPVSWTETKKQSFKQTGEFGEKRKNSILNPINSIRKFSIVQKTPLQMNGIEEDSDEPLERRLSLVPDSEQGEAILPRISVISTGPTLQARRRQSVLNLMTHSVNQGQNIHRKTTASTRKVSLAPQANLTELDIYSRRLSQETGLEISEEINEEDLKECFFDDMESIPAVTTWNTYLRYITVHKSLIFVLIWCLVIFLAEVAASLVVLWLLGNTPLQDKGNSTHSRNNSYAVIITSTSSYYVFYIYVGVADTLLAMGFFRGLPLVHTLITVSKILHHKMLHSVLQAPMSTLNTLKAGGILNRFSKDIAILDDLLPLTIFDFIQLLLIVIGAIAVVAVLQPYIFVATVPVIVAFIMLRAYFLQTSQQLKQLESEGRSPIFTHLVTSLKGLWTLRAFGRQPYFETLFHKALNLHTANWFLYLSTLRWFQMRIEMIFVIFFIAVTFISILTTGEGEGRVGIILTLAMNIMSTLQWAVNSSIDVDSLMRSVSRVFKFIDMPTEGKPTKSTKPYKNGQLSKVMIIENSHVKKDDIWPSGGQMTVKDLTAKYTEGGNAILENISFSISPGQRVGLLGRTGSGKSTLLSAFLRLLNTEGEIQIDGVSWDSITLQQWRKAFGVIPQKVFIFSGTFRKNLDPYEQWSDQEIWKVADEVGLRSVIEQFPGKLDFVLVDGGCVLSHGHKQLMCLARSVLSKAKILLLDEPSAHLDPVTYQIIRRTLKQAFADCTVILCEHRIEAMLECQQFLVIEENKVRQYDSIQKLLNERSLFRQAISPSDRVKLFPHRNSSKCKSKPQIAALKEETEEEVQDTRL
T1 sequence (P13569 with tags, fused parts or gaps DEL508-508): as above

In the case of `Cc1ccc(C2CCCCC2)c(OC2(C(=O)NS(=O)(=O)c3cccc(N4CCNCC4)n3)CC2)c1` [Example 2-31, 1-(2-Cyclohexyl-5-methylphenoxy)-N-((6-(piperazin-1-yl)pyridin-2-yl)sulfonyl)cyclopropanecarboxamide], at delF508-CFTR-HRP, the Emax amounted to 96% and the EC50 came out at 3250 nM. Besides, at delF508-CFTR, the “MTECC24 CFHBEC-Amax %” value amounted to 89% and the EC50 was 421 nM.

As to `Cc1ccc(C2CCCCC2)c(OC2(C(=O)NS(=O)(=O)c3cccc(N(C)CC(C)O)n3)CC2)c1` (centres unmarked) [Example 2-48], on delF508-CFTR-HRP, the Emax is 620% and a half-maximal response (EC50) required 2020 nM. Further, at delF508-CFTR, the “MTECC24 CFHBEC-Amax %” value turned out to be 93% and the EC50 stood at 4 nM.

Take `Cc1ccc(C2CCC(F)(F)CC2)c(OC2(C(=O)NS(=O)(=O)c3cccc(N)n3)CC2)c1` [Example 1-4, N-((6-Aminopyridin-2-yl)sulfonyl)-1-(2-(4,4-difluorocyclohexyl)-5-methylphenoxy)cyclopropane-1-carboxamide]: on delF508-CFTR-HRP, the Emax stood at 260% and the EC50 was found to be 3970 nM. At delF508-CFTR, the “MTECC24 CFHBEC-Amax %” value was 59% and the EC50 was 437 nM.

In the case of `Cc1ccc(C2CCCCC2)c(OC2(C(=O)NS(=O)(=O)c3cccc(NC[C@H](C)O)n3)CC2)c1` [Example 2-47, (S)-1-(2-Cyclonexyl-5-methylphenoxy)-N-((6-((2-hydroxypropyl)amino)pyridin-2-yl)sulfonyl)cyclopropane-1-carboxamide], on delF508-CFTR-HRP, the Emax worked out at 747% and the EC50 worked out at 2420 nM. Further, at delF508-CFTR, the “MTECC24 CFHBEC-Amax %” value was 97% and the EC50 was 6 nM.

For the compound `Cc1ccc(C2CCCCC2)c(OC2(C(=O)NS(=O)(=O)c3cccc(N4CCC(C)(O)CC4)n3)CC2)c1` [Example 2-49, 1-(2-Cyclohexyl-5-methylphenoxy)-N-((6-(4-hydroxy-4-methylpiperidin-1-yl)pyridin-2-yl)sulfonyl)cyclopropane-1-carboxamide], on delF508-CFTR-HRP, the Emax was determined as 391% and the EC50 is 1050 nM. At delF508-CFTR, the “MTECC24 CFHBEC-Amax %” value was determined as 102% and the EC50 is 5 nM.

Turning to `Cc1ccc(C2CCCCC2)c(OC2(C(=O)NS(=O)(=O)c3cccc(N4CCC(C)(NC(=O)C5CC5)CC4)n3)CC2)c1` [Example 2-10, 1-(2-Cyclohexyl-5-methylphenoxy)-N-((6-(4-(cyclopropanecarboxamido)-4-methylpiperidin-1-yl)pyridin-2-yl)sulfonyl)cyclopropanecarboxamide], on delF508-CFTR-HRP, the Emax came to 327% and the EC50 amounted to 1810 nM. For the same compound, at delF508-CFTR, the “MTECC24 CFHBEC-Amax %” value is reported as 56% and the EC50 was determined as 3 nM.

For `COC1CN(c2cccc(S(=O)(=O)NC(=O)C3(Oc4cc(C)ccc4C4CCCCC4)CC3)n2)C1` [Example 2-18, 1-(2-Cyclohexyl-5-methylphenoxy)-N-((6-(3-methoxyazetidin-1-yl)pyridin-2-yl)sulfonyl)cyclopropanecarboxamide], on delF508-CFTR-HRP, the Emax worked out at 597% and the midpoint of the response, the EC50, lay at 1580 nM. At delF508-CFTR, the “MTECC24 CFHBEC-Amax %” value is 91% and the EC50 was 21 nM.

Turning to `C[C@@H]1CN(c2cccc(S(=O)(=O)NC(=O)C3(Oc4cc(Cl)ccc4C4CCC(C)(C)CC4)CC3)n2)CCO1` [Example 4-13, (R)-1-(5-Chloro-2-(4,4-dimethylcyclohexyl)phenoxy)-N-((6-(2-methylmorpholino)pyridin-2-yl)sulfonyl)cyclopropane-1-carboxamide], at delF508-CFTR-HRP, the Emax was found to be 591% and a half-maximal response (EC50) required 1410 nM. Also, at delF508-CFTR, the “MTECC24 CFHBEC-Amax %” value is given as 83% and the EC50 amounted to 50 nM.

For the origin of these results see patent publication US20220033407A1, “N-(pyridin-2-ylsulfonyl)cyclopropanecarboxamide Derivatives and their Use in the Treatment of Disease” (NOVARTIS AG, priority 2018, published 2022).
